The subject of test [1] is influenza A virus A/Marton/43 (H1N1). It counts as cell-based.
The test system of a further test is influenza A virus. It counts as cell-based.

Values joined by “and” are separate entries in the source; they are usually repeats but may differ in a detail not shown here. Equal values may be shown once.

Regarding `CC(=O)N[C@H]1[C@H]([C@H](O)[C@H](O)CO)OC(C(=O)O)=C[C@@H]1NC(=N)N` [Neuraminidase inhibitor, 4-guanidino-2,4-dideoxy-2,3-dehydro-N-acetylneuraminic acid], the average virus titer in test [1] is 4.93 × 10^5 and 2.7 × 10^5. Further, in the test on influenza A virus, the “virus localisation in treated TE cultures (staining, FIGS. 12A-F)” value is recorded as “accumulation of clumped virus”.

The record behind these values is patent publication US20090227025A1, “Ex vivo human lung/immune system model using tissue engineering for studying microbial pathogens with lung tropism” (priority 2003, published 2009).
